Results from the supplement of paper PMC8967900.

How the values were obtained:
Test in all cases: selective drug sensitivity score (sDSS, relative to normal bone marrow) (sDSS (score)); higher = more potent and effective on the cell line relative to normal bone marrow cells
Conditions in all cases: 72 h
CCRF-CEM = system: CCRF-CEM
CCRF-HSB2 = system: CCRF-HSB2
COG-LL-319h = system: COG-LL-319h
COG-LL-332h = system: COG-LL-332h
DND-41 = system: DND-41
HPB-ALL = system: HPB-ALL
KASUMI-10 = system: KASUMI-10
KASUMI-2 = system: KASUMI-2
LC4-1 = system: LC4-1
MHH-CALL-4 = system: MHH-CALL-4
MN-60 = system: MN-60
MOLT-14 = system: MOLT-14
MOLT-16 = system: MOLT-16
NALL-1 = system: NALL-1
NALM-16 = system: NALM-16
NALM-6 = system: NALM-6
REH = system: REH
SEM cells = system: SEM cells
SUP-B15 = system: SUP-B15
TANOUE = system: TANOUE
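Further: ALL cell lines in 384-well plates, five doses spanning 10,000-fold, each plate scaled between vehicle and 100 µmol/L benzalkonium chloride controls, sDSS an adapted area-under-curve metric.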

COc1cc(CCc2cc(NC(=O)c3ccc(N4CC(C)NC(C)C4)cc3)n[nH]2)cc(OC)c1 (stereo not given) [AZD4547] (top concentration 1000 nM)
selective drug sensitivity score (CCRF-CEM): -0.14
selective drug sensitivity score (CCRF-HSB2): -0.14
selective drug sensitivity score (COG-LL-319h): -0.04
selective drug sensitivity score (COG-LL-332h): -0.04
selective drug sensitivity score (DND-41): 1.66
selective drug sensitivity score (HPB-ALL): -0.14
selective drug sensitivity score (KASUMI-10): 1.36
selective drug sensitivity score (KASUMI-2): 0.26
selective drug sensitivity score (LC4-1): 0.66
selective drug sensitivity score (MHH-CALL-4): -0.14
selective drug sensitivity score (MN-60): -0.14
selective drug sensitivity score (MOLT-14): -0.14
selective drug sensitivity score (MOLT-16): -0.14
selective drug sensitivity score (NALL-1): -0.14
selective drug sensitivity score (NALM-16): 0.56
selective drug sensitivity score (NALM-6): -0.14
selective drug sensitivity score (REH): -0.14
selective drug sensitivity score (SEM cells): 0.36
selective drug sensitivity score (SUP-B15): -0.14
selective drug sensitivity score (TANOUE): -0.14

CCCCOc1nc(N)c2c(n1)N(Cc1cccc(CN3CCCC3)c1)CC(=O)N2 [Vesatolimod] (top concentration 10000 nM)
selective drug sensitivity score (CCRF-CEM): -3.52
selective drug sensitivity score (CCRF-HSB2): -3.52
selective drug sensitivity score (COG-LL-319h): 0.38
selective drug sensitivity score (COG-LL-332h): -3.52
selective drug sensitivity score (DND-41): -2.12
selective drug sensitivity score (HPB-ALL): -3.52
selective drug sensitivity score (KASUMI-10): -3.52
selective drug sensitivity score (KASUMI-2): -3.52
selective drug sensitivity score (LC4-1): -3.52
selective drug sensitivity score (MHH-CALL-4): -3.52
selective drug sensitivity score (MN-60): -2.32
selective drug sensitivity score (MOLT-14): -3.52
selective drug sensitivity score (MOLT-16): -3.52
selective drug sensitivity score (NALL-1): -3.52
selective drug sensitivity score (NALM-16): -3.52
selective drug sensitivity score (NALM-6): -3.52
selective drug sensitivity score (REH): -3.52
selective drug sensitivity score (SEM cells): -3.52
selective drug sensitivity score (SUP-B15): -3.52
selective drug sensitivity score (TANOUE): -3.32

CC1(C)CCC(CN2CCN(c3ccc(C(=O)NS(=O)(=O)c4ccc(NCC5CCOCC5)c([N+](=O)[O-])c4)c(Oc4cnc5[nH]ccc5c4)c3)CC2)=C(c2ccc(Cl)cc2)C1 [Venetoclax] (top concentration 1000 nM)
selective drug sensitivity score (CCRF-CEM): -1.8
selective drug sensitivity score (CCRF-HSB2): -2.9
selective drug sensitivity score (COG-LL-319h): 28.8
selective drug sensitivity score (COG-LL-332h): -3.3
selective drug sensitivity score (DND-41): 2.1
selective drug sensitivity score (HPB-ALL): -0.9
selective drug sensitivity score (KASUMI-10): 29.5
selective drug sensitivity score (KASUMI-2): 22.9
selective drug sensitivity score (LC4-1): 31.8
selective drug sensitivity score (MHH-CALL-4): 14.2
selective drug sensitivity score (MN-60): -4.4
selective drug sensitivity score (MOLT-14): 8
selective drug sensitivity score (MOLT-16): 6
selective drug sensitivity score (NALL-1): 20.5
selective drug sensitivity score (NALM-16): 22.6
selective drug sensitivity score (NALM-6): 4.4
selective drug sensitivity score (REH): 0.9
selective drug sensitivity score (SEM cells): 21.1
selective drug sensitivity score (SUP-B15): 34.5
selective drug sensitivity score (TANOUE): -4.4

CCCCCCCCc1ccc(CCC(N)(CO)CO)cc1 [Fingolimod] (top concentration 10000 nM)
selective drug sensitivity score (CCRF-CEM): 0.98
selective drug sensitivity score (CCRF-HSB2): 0.48
selective drug sensitivity score (COG-LL-319h): 0.28
selective drug sensitivity score (COG-LL-332h): 1.38
selective drug sensitivity score (DND-41): 1.28
selective drug sensitivity score (HPB-ALL): 1.68
selective drug sensitivity score (KASUMI-10): -0.72
selective drug sensitivity score (KASUMI-2): -0.82
selective drug sensitivity score (LC4-1): 0.88
selective drug sensitivity score (MHH-CALL-4): 1.58
selective drug sensitivity score (MN-60): 1.28
selective drug sensitivity score (MOLT-14): 2.08
selective drug sensitivity score (MOLT-16): 5.38
selective drug sensitivity score (NALL-1): 6.18
selective drug sensitivity score (NALM-16): -0.02
selective drug sensitivity score (NALM-6): 1.58
selective drug sensitivity score (REH): -1.52
selective drug sensitivity score (SEM cells): 0.48
selective drug sensitivity score (SUP-B15): 7.48
selective drug sensitivity score (TANOUE): 0.78

COc1cc(Nc2c(C#N)cnc3cc(OCCCN4CCN(C)CC4)c(OC)cc23)c(Cl)cc1Cl [Bosutinib] (top concentration 10000 nM)
selective drug sensitivity score (CCRF-CEM): -0.74
selective drug sensitivity score (CCRF-HSB2): 27
selective drug sensitivity score (COG-LL-319h): 1.66
selective drug sensitivity score (COG-LL-332h): 6.56
selective drug sensitivity score (DND-41): 0.06
selective drug sensitivity score (HPB-ALL): -2.64
selective drug sensitivity score (KASUMI-10): -1.14
selective drug sensitivity score (KASUMI-2): -2.04
selective drug sensitivity score (LC4-1): 0.96
selective drug sensitivity score (MHH-CALL-4): -3.14
selective drug sensitivity score (MN-60): -3.24
selective drug sensitivity score (MOLT-14): 1.86
selective drug sensitivity score (MOLT-16): 0.16
selective drug sensitivity score (NALL-1): -0.94
selective drug sensitivity score (NALM-16): -3.04
selective drug sensitivity score (NALM-6): -1.24
selective drug sensitivity score (REH): -1.94
selective drug sensitivity score (SEM cells): 1.96
selective drug sensitivity score (SUP-B15): 16
selective drug sensitivity score (TANOUE): -7.74

N#CC1(c2ccc(NC(=O)c3cccnc3NCc3ccncc3)cc2)CCCC1 [Apatinib] (top concentration 10000 nM)
selective drug sensitivity score (CCRF-CEM): 0
selective drug sensitivity score (CCRF-HSB2): 0.3
selective drug sensitivity score (COG-LL-319h): 0.6
selective drug sensitivity score (COG-LL-332h): 0
selective drug sensitivity score (DND-41): 1
selective drug sensitivity score (HPB-ALL): 1
selective drug sensitivity score (KASUMI-10): 0
selective drug sensitivity score (KASUMI-2): 2.1
selective drug sensitivity score (LC4-1): 1.2
selective drug sensitivity score (MHH-CALL-4): 0
selective drug sensitivity score (MN-60): 0
selective drug sensitivity score (MOLT-14): 0
selective drug sensitivity score (MOLT-16): 0
selective drug sensitivity score (NALL-1): 0
selective drug sensitivity score (NALM-16): 0
selective drug sensitivity score (NALM-6): 0.4
selective drug sensitivity score (REH): 0.1
selective drug sensitivity score (SEM cells): 1
selective drug sensitivity score (SUP-B15): 0.1
selective drug sensitivity score (TANOUE): 0

O=C(Nc1cc(Cl)cc2c1[nH]c1cnccc12)c1cccnc1 [PS-1145] (top concentration 25000 nM)
selective drug sensitivity score (CCRF-CEM): -0.46
selective drug sensitivity score (CCRF-HSB2): 1.34
selective drug sensitivity score (COG-LL-319h): -0.46
selective drug sensitivity score (COG-LL-332h): -0.46
selective drug sensitivity score (DND-41): -0.46
selective drug sensitivity score (HPB-ALL): -0.46
selective drug sensitivity score (KASUMI-10): 3.44
selective drug sensitivity score (KASUMI-2): -0.46
selective drug sensitivity score (LC4-1): -0.46
selective drug sensitivity score (MHH-CALL-4): -0.46
selective drug sensitivity score (MN-60): -0.46
selective drug sensitivity score (MOLT-14): -0.46
selective drug sensitivity score (MOLT-16): -0.16
selective drug sensitivity score (NALL-1): 9.14
selective drug sensitivity score (NALM-16): -0.46
selective drug sensitivity score (NALM-6): -0.46
selective drug sensitivity score (REH): 1.94
selective drug sensitivity score (SEM cells): 0.04
selective drug sensitivity score (SUP-B15): -0.46
selective drug sensitivity score (TANOUE): -0.46

CC(C)C[C@H](NC(=O)[C@@H](COC(C)(C)C)NC(=O)[C@H](Cc1ccc(O)cc1)NC(=O)[C@H](CO)NC(=O)[C@H](Cc1c[nH]c2ccccc12)NC(=O)[C@H](Cc1cnc[nH]1)NC(=O)[C@@H]1CCC(=O)N1)C(=O)N[C@@H](CCCNC(=N)N)C(=O)N1CCC[C@H]1C(=O)NNC(N)=O [Goserelin] (top concentration 10000 nM)
selective drug sensitivity score (CCRF-CEM): -0.06
selective drug sensitivity score (CCRF-HSB2): 0.04
selective drug sensitivity score (COG-LL-319h): 4.84
selective drug sensitivity score (COG-LL-332h): -0.06
selective drug sensitivity score (DND-41): -0.06
selective drug sensitivity score (HPB-ALL): -0.06
selective drug sensitivity score (KASUMI-10): -0.06
selective drug sensitivity score (KASUMI-2): -0.06
selective drug sensitivity score (LC4-1): -0.06
selective drug sensitivity score (MHH-CALL-4): 0.14
selective drug sensitivity score (MN-60): -0.06
selective drug sensitivity score (MOLT-14): -0.06
selective drug sensitivity score (MOLT-16): 0.14
selective drug sensitivity score (NALL-1): -0.06
selective drug sensitivity score (NALM-16): -0.06
selective drug sensitivity score (NALM-6): -0.06
selective drug sensitivity score (REH): 0.14
selective drug sensitivity score (SEM cells): -0.06
selective drug sensitivity score (SUP-B15): -0.06
selective drug sensitivity score (TANOUE): -0.06

COc1cc([C@@H]2c3cc4c(cc3[C@@H](O[C@@H]3O[C@@H]5CO[C@@H](C)O[C@H]5[C@H](O)[C@H]3O)[C@H]3COC(=O)[C@H]23)OCO4)cc(OC)c1O [Etoposide] (top concentration 10000 nM)
selective drug sensitivity score (CCRF-CEM): 20.2
selective drug sensitivity score (CCRF-HSB2): 26
selective drug sensitivity score (COG-LL-319h): 23.2
selective drug sensitivity score (COG-LL-332h): 22.7
selective drug sensitivity score (DND-41): 11.3
selective drug sensitivity score (HPB-ALL): 7.74
selective drug sensitivity score (KASUMI-10): 13
selective drug sensitivity score (KASUMI-2): 20.9
selective drug sensitivity score (LC4-1): 14.8
selective drug sensitivity score (MHH-CALL-4): 10.2
selective drug sensitivity score (MN-60): -0.86
selective drug sensitivity score (MOLT-14): 21.5
selective drug sensitivity score (MOLT-16): 28.9
selective drug sensitivity score (NALL-1): 14.9
selective drug sensitivity score (NALM-16): 2.64
selective drug sensitivity score (NALM-6): 14.1
selective drug sensitivity score (REH): 20.3
selective drug sensitivity score (SEM cells): 15.5
selective drug sensitivity score (SUP-B15): 26.8
selective drug sensitivity score (TANOUE): -6.26
